“Also recorded” adds a separate entry of the source.
Key:
[1] = active ingredient delivery in PhEur phosphate buffer of pH 6.8 in a USP dissolution tester (theophylline pellets); assay type: physicochemical; conditions: substance in pellet core under EUDRAGIT RS coating
[2] = in vitro activity of modulating substances in purified water and phosphate buffer pH 6.8; assay type: physicochemical; conditions: purified water vs phosphate buffer pH 6.8
From the text: In the human and animal gastrointestinal tract the concentration of ions may vary to a certain extent and thus may influence the activity of the modulating substances. For reproducible in-vivo results substances having a modulating effect, which are not or only a little influenced by varying ionic strength are preferred.

CC(=O)[O-].[Na+] [sodium acetate]
effect of the modulating substance on the rate of active ingredient delivery [1]: accelerating effect
effect of the modulating substance on the rate of active ingredient delivery ([1]; listed as Na acetate): increase the rate of active ingredient delivery

[Cl-].[Na+] [sodium chloride]
effect of the modulating substance on the rate of active ingredient delivery [1]: reducing effect
effect of the modulating substance on the rate of active ingredient delivery ([1]; listed as NaCl): decrease the rate of active ingredient delivery
in vitro activity of the modulating substance in purified water compared with phosphate buffer pH 6.8 (Pharm. Eur.) [2]: almost the same activity

O=C(O)CC(O)(CC(=O)O)C(=O)O [citric acid]
effect of the modulating substance on the rate of active ingredient delivery [1]: accelerating effect; also recorded: increase the rate of active ingredient delivery
in vitro activity of the modulating substance in purified water compared with phosphate buffer pH 6.8 (Pharm. Eur.) [2]: almost the same activity

O=C([O-])CCC(=O)[O-].[Na+].[Na+] [sodium succinate]
effect of the modulating substance on the rate of active ingredient delivery [1]: accelerating effect
effect of the modulating substance on the rate of active ingredient delivery ([1]; listed as Na succinate): increase the rate of active ingredient delivery
in vitro activity of the modulating substance in purified water compared with phosphate buffer pH 6.8 (Pharm. Eur.) [2]: almost the same activity

O=C([O-])CC(O)(CC(=O)[O-])C(=O)[O-].[Na+].[Na+].[Na+] [Na citrate]
effect of the modulating substance on the rate of active ingredient delivery [1]: decrease the rate of active ingredient delivery

— patent publication US20080220080A1, “Multiparticulate Pharmaceutical form Comprising Pellets with a Substance Having a Modular Effect in Relation to Active Ingredient Release” (RÖHM GMBH, priority 2005, published 2008)
